Measurements published in patent US5593835A, “Methods and kits for RNA binding compounds” (President and Fellows of Harvard College, priority 1995, dated 1997).
Where two headings read alike, the source gives them in different places.

Legend:
[1] = molecular target: random selected RNA pool (low stringency tobramycin column); test: Fluorescence assay, average binding of the random selected RNA pool; settings: overall selected pool mixture
Protocol: To determine whether the W13 RNA clone is representative of the average binding capacity of the random selected RNA pool, the average KD values for the random selected pool were measured. […] Therefore, the W13 RNA is representative of the average binding capacity of the random selected pool.
(§1) Steady state fluorescence measurements were performed on a double beam fluorescence spectrometer (Perkin-Elmer Model 512, Norwalk, Conn.). The excitation wavelength was 341 nm. All measurements were done at 20° C. in 140 mM NaCl, 5 mM KCl, 1 mM CaCl2, 1 mM MgCl2, and 20 mM HEPES, pH 7.4. The KD of the PYT and the RNA aptamer was calculated by the curve fitting of the fluorescence intensity as a function of RNA concentration, using the following equation
(§2) Competition binding measurements of antibiotics with RNA and PYT were performed at constant concentrations of PYT and RNA by monitoring fluorescence intensity changes as a function of changing concentrations of the antibiotics (a standard fluorescence curve). The KD s for the antibiotics were calculated by the curve fitting of the fluorescence intensity of PYT as a function of antibiotic concentration, using the following equation: […]

J6 RNA (SEQ ID NO:5) = test: Fluorescence binding measurements, J6 RNA
Protocol: The binding of tobramycin to two cloned RNAs X1 (SEQ ID NO:2) and J6 (SEQ ID NO:5), representative of both classes of consensus sequences, was measured using the fluorescence techniques described in the exemplification.
as §1, §2

[2] = molecular target: clone W13 RNA (SEQ ID NO:1), tobramycin-selected RNA aptamer; test: Equilibrium dialysis binding to clone W13 RNA; settings: competition studies with 3H-acetyl tobramycin; read-out: dissociation constant
Protocol: One of these RNAs, clone W13 (SEQ ID NO:1) was chosen for quantitative studies to determine the specificity of its binding to RNA. […] The dissociation constant for tobramycin was determined to be 3 μM by competition studies with ^3 H-acetyl tobramycin. These values are close to those measured for tobramycin and ^3 H-acetyl tobramycin binding to ribosomal targets (LeGoffic et al. (1979) Eur. J. Biochem. 102: 73-81).
Equilibrium dialysis measurements were performed according to the procedure of Lorsch et al. (Biochem. (1994) 33: 973-982).

[3] = tested on: RNA pool transcribed from DNA after the sixth selection, bound to tobramycin affinity column; test: Elution of bound RNA from tobramycin affinity column; type: binding; settings: 3 column volumes of 10 mM tobramycin
Text: Elution patterns of the RNA from the columns are shown in FIG. 4 for the second and sixth selections. Over 6 cycles of selection, the percentages of RNA specifically eluted with tobramycin were <0.1%, 3.0%, 2.9%, 26%, 55%, and 82%. […] The RNA pool transcribed from DNA after the sixth selection could not be eluted from the affinity column, even after 100 column volumes of selection buffer.
An N-hydroxysuccinimide Affi-Gel affinity column (Bio-Rad, Hercules, Calif.) was derivatized with either 20 μmoles or 0.075 μmoles tobramycin per ml of gel to generate the affinity columns. Excess N-hydroxysuccinimide linkages were blocked by adding 1M ethanolamine. The resulting column served as the support for the RNA selections. The tobramycin concentration on column was estimated as about 15 mM. Selections were performed in 1 ml column volumes in a buffer (selection buffer) containing 140 mM NaCl, 5 mM KCl, 1 mM CaCl2, 1 mM MgCl2, and 20 mM Tris acetate, pH 7.4 (Bock et al. (1992) Nature 355: 564-566). A 1 ml Affi-Gel 10 pre-column treated with ethanolamine was used in all selections.
The original double stranded DNA pool was constructed by large scale PCR amplification of the synthesized 109mer random DNA pool (Oligos, Etc., Inc., Wilsonville, Oreg.) containing 60 random nucleotides. […]

SMILES: NC[C@H]1O[C@H](O[C@H]2[C@H](O)[C@@H](O[C@H]3O[C@H](CO)[C@@H](O)[C@H](N)[C@H]3O)[C@H](N)C[C@@H]2N)[C@H](N)C[C@@H]1O [tobramycin]
- Kd [1]: 8.8 ± 0.3 µM
- Kd (J6 RNA (SEQ ID NO:5); K1 - high affinity, read-out: Dissociation Constants K1(TOB)): 0.002 ± 0.001 µM
- Kd (J6 RNA (SEQ ID NO:5); K2 - low affinity, read-out: Dissociation Constants K2(TOB)): 6 ± 0.4 µM
- Kd [2]: 3 µM
- RNA eluted from tobramycin affinity column [3]: 96%
